Among the data in ChEMBL document CHEMBL6134785, “New ATP-competitive inhibitors of E. coli GyrB obtained from the mapping of the hydrophobic floor at the binding site: synthesis and biological evaluation” (RSC Med Chem, 2024) are IC50 values, retold here.

This assay concerns the target DNA gyrase (Escherichia coli, UniProt P0AES4+P0AES6). Put plainly: Inhibition of Escherichia coli DNA gyrase supercoiling activity incubated for 30 mins in presence of spermidine/ATP by fluorescence based analysis. It is filed as protein-complex assay.
Consider `O=C(O)C(=O)Nc1ccc2nc(N(Cc3cccc(C(=O)O)c3)C(=O)c3cc(Br)c(Br)[nH]3)sc2c1`, for which the IC50 was 96 nM. For `O=C(O)C(=O)Nc1ccc2nc(N(Cc3ccccc3)C(=O)c3cc(Br)c(Br)[nH]3)sc2c1` the value was 19 nM; for `O=C(O)C(=O)Nc1ccc2c(c1)s/c(=N\C(=O)c1cc(Br)c(Br)[nH]1)n2Cc1ccccc1`, 134 nM.
